Consider 10 compounds from ChEMBL document CHEMBL1201862, “PubChem BioAssay data set” (2004).

The structures appear in SMILES notation.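 How tested: cells in 96-well plates exposed to compound for 48 hours at five concentrations. The concentration for 50% growth inhibition is given as GI50.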 Calls of active or inactive are those of the source. Rule as the data show it: active = GI50 up to about 1.1 µM and inactive = higher.

Some test systems named below: 786-0; A498; ACHN; EKVX; HCT-116; HT-29; M14; MCF7; MOLT-4; Malme-3M; NCI-H226; NCI-H23; NCI-H522; NCI/ADR-RES; OVCAR-3; OVCAR-8; RPMI-8226; SK-MEL-2; SR; UACC-62.
Common to all, as to assay: inhibition of tumour cell growth, NCI panel, 48 h

In the case of `CCCCCC(/C=C/[C@@H]1CC(=O)C[C@H]1O[Si](C)(C)C(C)(C)C)OCOCCOC` (stereo not given in full), the GI50 was 3.74 µM (inactive) with 786-0; 11.9 µM (inactive) in the assay on A498; 2.96 µM (inactive) with ACHN; 6.31 µM (inactive) with EKVX; 2.99 µM (inactive) in the assay on HCT-116; 3.48 µM (inactive) in the assay on HT-29. The GI50 with M14 is 4.04 µM (inactive); in the assay on MCF7, 3.65 µM (inactive); in the assay on MOLT-4, 1.75 µM (inactive); in the assay on Malme-3M it was 2.35 µM (inactive); in the assay on NCI-H226 it was 5.48 µM (inactive); in the assay with NCI-H23, 3.56 µM (inactive). Moreover, the GI50 is 1.93 µM (inactive) with NCI-H522; 2.94 µM (inactive) with NCI/ADR-RES; 3.93 µM (inactive) in the assay with OVCAR-3; 4.23 µM (inactive) in the assay with OVCAR-8; 2.61 µM (inactive) with RPMI-8226; 4.22 µM (inactive) in the assay on SK-MEL-2. The GI50 was 1.5 µM (inactive) in the assay with SR and 2.7 µM (inactive) in the assay on UACC-62.
As for `NC(CO)C(=O)NCC(=O)O` (stereo not given), the GI50 in the assay with 786-0, in the assay with A498, in the assay with ACHN, with EKVX, in the assay on HCT-116 and in the assay with HT-29 was > 100 µM (inactive) throughout. For the same compound, the GI50 in the assay with M14, in the assay with MCF7, in the assay with MOLT-4, in the assay on Malme-3M, in the assay with NCI-H226 and in the assay with NCI-H23 was > 100 µM (inactive) in each case. In addition, the GI50 in the assay with NCI-H522, in the assay with NCI/ADR-RES, in the assay with OVCAR-3, with OVCAR-8, in the assay on RPMI-8226 and with SK-MEL-2 was > 100 µM (inactive) each time. The GI50 in the assay on SR and with UACC-62 was > 100 µM (inactive) in each case.
For `CC(C)(C)c1nc2c(o1)/C(=N\c1ccc(F)cc1)c1ccccc1C2=O`, the GI50 in the assay with 786-0 is 27.2 µM (inactive); with A498 it was 27.4 µM (inactive); with ACHN it was 4.85 µM (inactive); in the assay with EKVX, 23.7 µM (inactive); with HCT-116, 5.12 µM (inactive); with HT-29, 17.6 µM (inactive). The GI50 in the assay with M14 was 2.96 µM (inactive); in the assay on MCF7, 4.13 µM (inactive); in the assay with MOLT-4 it was > 100 µM (inactive); with Malme-3M, 1.97 µM (inactive); in the assay on NCI-H226, 16.9 µM (inactive); in the assay with NCI-H23, 2.26 µM (inactive). The GI50 with NCI-H522 is 5.36 µM (inactive); in the assay with NCI/ADR-RES, 6.73 µM (inactive); with OVCAR-3, 1.06 µM (active); in the assay with OVCAR-8, 7.21 µM (inactive); in the assay on RPMI-8226 it was 26.9 µM (inactive); in the assay on SK-MEL-2, 2.67 µM (inactive). Also, the values for the GI50 in the assay with SR and in the assay with UACC-62 were > 43.5 µM (inactive) and 2.55 µM (inactive), respectively.
As to `Cc1nc2cc(/N=N/c3c(C)noc3C)ccc2[nH]1`, the GI50 in the assay with 786-0 was 28.1 µM (inactive); in the assay with A498, 11.1 µM (inactive); with ACHN it was 25.1 µM (inactive); in the assay on EKVX it was 18.2 µM (inactive); with HCT-116, 18.3 µM (inactive); in the assay on HT-29, 17.7 µM (inactive). Also, the GI50 in the assay with M14 is 26.5 µM (inactive); in the assay with MCF7, 18.2 µM (inactive); in the assay on MOLT-4, 17.9 µM (inactive); in the assay with Malme-3M, 25.9 µM (inactive); with NCI-H226, > 100 µM (inactive); with NCI-H23, 35.3 µM (inactive). Also, the GI50 was 23.3 µM (inactive) in the assay on NCI-H522; 28.1 µM (inactive) with NCI/ADR-RES; 18.1 µM (inactive) with OVCAR-3; 24.5 µM (inactive) in the assay with OVCAR-8; 17.9 µM (inactive) with RPMI-8226; 34.8 µM (inactive) with SK-MEL-2. Moreover, the GI50 in the assay on SR is 16.9 µM (inactive); in the assay on UACC-62, 27 µM (inactive).
Turning to `O=[N+]([O-])C(=C/c1cccc2ccccc12)/C(=C\c1cccc2ccccc12)[N+](=O)[O-]`, the GI50 with 786-0 is 1.77 µM (inactive); with A498, 19.3 µM (inactive); with ACHN, 2.13 µM (inactive); with EKVX, 3.4 µM (inactive); in the assay on HCT-116, 2.49 µM (inactive); with HT-29, 2.21 µM (inactive). The GI50 was 2.19 µM (inactive) with M14; 2.99 µM (inactive) in the assay with MCF7; 0.984 µM (active) in the assay with MOLT-4; 2.07 µM (inactive) in the assay on Malme-3M; 4.85 µM (inactive) in the assay on NCI-H226; 1.98 µM (inactive) in the assay on NCI-H23. Further, the GI50 is 1.37 µM (inactive) with NCI-H522; 2.51 µM (inactive) with NCI/ADR-RES; 4.02 µM (inactive) with OVCAR-3; 2.42 µM (inactive) in the assay on OVCAR-8; 2.56 µM (inactive) with RPMI-8226; 9.73 µM (inactive) in the assay with SK-MEL-2. The GI50 is 0.955 µM (active) in the assay with SR and 1.71 µM (inactive) in the assay with UACC-62.
In the case of `CNC(=O)N(CCC#N)CCN(C(=O)NC)c1ccccc1`, the GI50 with 786-0, with A498, in the assay with ACHN, with EKVX, in the assay with HCT-116 and in the assay with HT-29 was > 100 µM (inactive) throughout. For the same compound, the GI50 with M14 is > 100 µM (inactive); in the assay on MCF7 it was > 100 µM (inactive); in the assay on MOLT-4, > 100 µM (inactive); with Malme-3M, > 73.8 µM (inactive); in the assay with NCI-H226 it was > 100 µM (inactive); in the assay on NCI-H23 it was > 100 µM (inactive). The GI50 in the assay on NCI-H522, with NCI/ADR-RES, in the assay on OVCAR-3, in the assay with OVCAR-8, in the assay on RPMI-8226 and with SK-MEL-2 was > 100 µM (inactive) throughout. In addition, the GI50 in the assay with SR and in the assay with UACC-62 was > 100 µM (inactive) throughout.
Regarding `O=C1C[C@@]23CCC4(CC2CCC[C@H]3O1)OCCO4` (stereo not given in full), the GI50 in the assay on 786-0, in the assay on A498, in the assay on ACHN, in the assay with EKVX, with HCT-116 and in the assay with HT-29 was > 100 µM (inactive) in each case. Besides, the GI50 with M14, with MCF7, in the assay on MOLT-4, with Malme-3M, in the assay with NCI-H226 and in the assay on NCI-H23 was > 100 µM (inactive) each time. In addition, the GI50 with NCI-H522, in the assay on NCI/ADR-RES, in the assay on OVCAR-3, in the assay on OVCAR-8, with RPMI-8226 and in the assay with SK-MEL-2 was > 100 µM (inactive) in each case. Moreover, the GI50 with SR and in the assay with UACC-62 was > 100 µM (inactive) each time.
For `CSC1=N/C(=C\c2ccc(C)cc2)C(=O)N1CN1CCCCC1`, the GI50 with 786-0 is 88.7 µM (inactive); in the assay with A498, > 100 µM (inactive); in the assay on ACHN, 59.6 µM (inactive); in the assay with EKVX it was 75.3 µM (inactive); in the assay with HCT-116 it was 84.9 µM (inactive); in the assay with HT-29, 38.5 µM (inactive). Also, the GI50 in the assay with M14 was > 100 µM (inactive); with MCF7, 88.1 µM (inactive); in the assay with MOLT-4 it was > 100 µM (inactive); in the assay on Malme-3M, > 100 µM (inactive); in the assay on NCI-H226 it was > 100 µM (inactive); in the assay on NCI-H23 it was > 100 µM (inactive). In addition, the GI50 in the assay with NCI-H522 was > 100 µM (inactive); with NCI/ADR-RES, 84.7 µM (inactive); in the assay with OVCAR-3 it was > 100 µM (inactive); with OVCAR-8, > 100 µM (inactive); in the assay with RPMI-8226, 32.3 µM (inactive); in the assay with SK-MEL-2 it was > 100 µM (inactive). Besides, the GI50 in the assay on SR is 89.7 µM (inactive); in the assay on UACC-62 it was > 100 µM (inactive).
Consider `CC(C)Oc1c(O)c2c3c(oc(=O)n3C=CC2c2ccccc2F)c1OC(C)C` (stereo not given), for which the GI50 is 33.4 µM (inactive) with 786-0; 38.6 µM (inactive) in the assay on A498; 35.7 µM (inactive) with ACHN; 41.1 µM (inactive) in the assay on EKVX; 21.7 µM (inactive) with HCT-116; 21.7 µM (inactive) in the assay on HT-29. For the same compound, the GI50 with M14 is 24.8 µM (inactive); with MCF7, 28.8 µM (inactive); in the assay on MOLT-4, 18.7 µM (inactive); in the assay on Malme-3M it was 39.1 µM (inactive); in the assay with NCI-H226, 32.6 µM (inactive); in the assay with NCI-H23, 30.5 µM (inactive). The GI50 is 33.8 µM (inactive) with NCI-H522; 34.4 µM (inactive) in the assay with NCI/ADR-RES; 44.1 µM (inactive) in the assay with OVCAR-3; 41.8 µM (inactive) with OVCAR-8; 17.3 µM (inactive) in the assay with RPMI-8226; 15.5 µM (inactive) in the assay on SK-MEL-2. Besides, the values for the GI50 in the assay with SR and in the assay on UACC-62 were 16.7 µM (inactive) and 21.1 µM (inactive), respectively.
As for `O=C(O)CCS/C(=C\C(SCCC(=O)O)c1ccc(Cl)cc1)c1ccc(Cl)cc1` (stereo not given), the GI50 with 786-0 is 78.9 µM (inactive); with A498 it was 19.7 µM (inactive); with ACHN, 46.3 µM (inactive); in the assay on EKVX, 62.5 µM (inactive); in the assay with HCT-116, 21.4 µM (inactive); in the assay on HT-29 it was 43.6 µM (inactive). Further, the GI50 in the assay on M14 was 47.9 µM (inactive); in the assay on MCF7, 21.3 µM (inactive); in the assay with MOLT-4 it was 37.2 µM (inactive); in the assay on Malme-3M, 76.4 µM (inactive); in the assay with NCI-H226, 69 µM (inactive); in the assay on NCI-H23 it was 42.5 µM (inactive). Besides, the GI50 in the assay with NCI-H522 was 33.5 µM (inactive); in the assay on NCI/ADR-RES it was > 100 µM (inactive); in the assay on OVCAR-3, 21.6 µM (inactive); with OVCAR-8, 53.5 µM (inactive); in the assay on RPMI-8226, 31 µM (inactive); in the assay on SK-MEL-2, 26.5 µM (inactive). Besides, the GI50 is 29.4 µM (inactive) in the assay on SR and 18.4 µM (inactive) in the assay with UACC-62.
